Results taken from PubChem BioAssay AID1963864 (Molecular Pharmacology Branch, DTP, NCI, 2024).
pIC50: −log10 of the molar value.

Test system: KRAS PDC multicell spheroid viability
Test: Anticancer human tumor 521955-158-R6-J3-PDC patient-derived pancreatic carcinoma cell line growth inhibition [KRAS2]
Details: for pIC50: curve of first compound; for viability, T/C: stronger effect = lower value; active means viability on the fitted dose curve at most 10% of control; inactive means the rest
Description: Multicellular complex tumor spheroid response to RAS pathway inhibitors in combination with a targeted agents in patient-derived cell lines with oncogenic KRAS variants from multiple cancer types
A high-throughput screen of multi-cell type tumor spheroids was designed to identify active combinations of targeted small molecules and KRAS pathway inhibitors. Complex spheroids include a stromal component modeled by human endothelial cells (HUVEC) and fibroblasts modeled by human mesenchymal stem cells (MSCs). The concentration ranges selected for each drug and investigational agent were based upon clinically achievable concentrations if the clinical Cmax of the agent was known.
Compounds. The drugs and investigational agents: BI-3406 (NSC825286), BAY-293 (NSC824723), batoprotafib (TNO155; NSC825523), sotorasib (AMG 510; NSC818433), MRTX1257 (NSC819558), elimusertib (BAY 1895344; NSC800525), molibresib (GSK525762; NSC774829), temuterkib (LY3214996; NSC803410), venetoclax (NSC766270), alisertib (NSC759677), olaparib (NSC753686), talazoparib (NSC767125), erdafitinib (NSC781556), ipatasertib (NSC767898), cabozantinib (NSC761068), nintedanib (NSC756659), abemaciclib (NSC768073), docetaxel (NSC628503), trametinib (NSC758246), and sapanisertib (NSC764658) were obtained from the National Cancer Institute (NCI) Developmental Therapeutics Program Chemical Repository. The FDA-approved anticancer drug set is available from the Developmental Therapeutics Program. […] The stock solutions were prepared in dimethyl sulfoxide (DMSO, Sigma-Aldrich, St. Louis, MO, cat. D2650) at 800-fold the tested concentration and stored at -70 degrees C prior to their use. All drugs and investigational agents were tested over a range starting from a high concentration at or near the clinical Cmax and decreasing in half-log increments. If the clinical Cmax for an agent had not been determined, the highest concentration tested was 10 microM.
Cell Culture. All cells were maintained in an incubator at 37 degrees C and 5% CO2 with 95% humidity. The PDC lines were cultured according to standard operating procedures established by the NCI PDMR (https://pdmr.cancer.gov/sops/default.htm). Briefly, all PDCs were thawed and cultured in Matrigel-coated flasks prepared with a working solution of 1X Ham's F-12 nutrient mix, without supplementation (Invitrogen, Waltham, MA, cat. 11765054), 100 U/mL penicillin-streptomycin (Invitrogen, cat. 15140122), and 2.5% Matrigel (Corning Inc., Corning, NY, cat. 354248) for the first three passages. All PDCs were cultured in complete DMEM/F-12 media containing advanced DMEM/F-12 (Invitrogen, cat. 12634028), 4.9% defined fetal bovine serum, heat inactivated (HyClone Laboratories Inc., Logan, UT, cat. SH30070.03HI), 389 ng/mL hydrocortisone (Sigma-Aldrich, cat. H4001), 9.7 ng/mL human EGF recombinant protein (Invitrogen, cat. PHG0313), 23.4 microg/mL adenine (Sigma-Aldrich, cat. A2786), 97.3 U/mL penicillin-streptomycin (Invitrogen, cat. 15140122), 1.9 mM L-glutamine (Invitrogen, cat. 25030081), and 9.7 microM Y-27632 dihydrochloride (Tocris Bioscience, Bristol, United Kingdom, cat. 1254). The PDCs were cultured in complete DMEM/F12 media without 9.7 microM Y-27632 dihydrochloride for at least two passages prior to the screen. The established cell line HOP-62 was cultured in RPMI 1640 medium, HEPES (Invitrogen, cat. 22400105) with 10% defined fetal bovine serum (HyClone Laboratories Inc., cat. SH30070.03) and 2 mM L-glutamine (Invitrogen, cat. 25030081). The pooled donor HUVEC were cultured in endothelial cell growth medium 2 (PromoCell, Heidelberg, Germany, cat. C-22011) and the hMSC were cultured in mesenchymal stem cell growth medium 2 (PromoCell, cat. C-28009). For all experiments, HUVEC and hMSC were used at passages </=5, while the malignant cell lines were used at passages </=15. […]

[1] = second compound 0.1 µM, first compound 0.01 µM
[2] = second compound 0.1 µM, first compound 0.0316 µM
[3] = second compound 0.1 µM, first compound 0.1 µM
[4] = second compound 0.1 µM, first compound 0.316 µM
[5] = second compound 0.1 µM, first compound 1 µM
[6] = second compound 0.1 µM, first compound 3.16 µM
[7] = second compound 0.316 µM, first compound 0.01 µM
[8] = second compound 0.316 µM, first compound 0.0316 µM
[9] = second compound 0.316 µM, first compound 0.1 µM
[10] = second compound 0.316 µM, first compound 0.316 µM
[11] = second compound 0.316 µM, first compound 1 µM
[12] = second compound 0.316 µM, first compound 3.16 µM
[13] = second compound 1 µM, first compound 0.01 µM
[14] = second compound 1 µM, first compound 0.0316 µM
[15] = second compound 1 µM, first compound 0.1 µM
[16] = second compound 1 µM, first compound 0.316 µM
[17] = second compound 1 µM, first compound 1 µM
[18] = second compound 1 µM, first compound 3.16 µM
[19] = second compound 3.16 µM, first compound 0.01 µM
[20] = second compound 3.16 µM, first compound 0.0316 µM
[21] = second compound 3.16 µM, first compound 0.1 µM
[22] = second compound 3.16 µM, first compound 0.316 µM
[23] = second compound 3.16 µM, first compound 1 µM
[24] = second compound 3.16 µM, first compound 3.16 µM
[25] = second compound 10 µM, first compound 0.01 µM
[26] = second compound 10 µM, first compound 0.0316 µM
[27] = second compound 10 µM, first compound 0.1 µM
[28] = second compound 10 µM, first compound 0.316 µM
[29] = second compound 10 µM, first compound 1 µM
[30] = second compound 10 µM, first compound 3.16 µM
[31] = second compound 0.1 µM, first compound 10 µM
[32] = second compound 0.316 µM, first compound 10 µM
[33] = second compound 1 µM, first compound 10 µM
[34] = second compound 3.16 µM, first compound 10 µM
[35] = second compound 10 µM, first compound 10 µM
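Further: drug exposure lasted seven days.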
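Wherever viability, T/C is given: 100% = DMSO vehicle wells and lower means fewer viable cells.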

CC1COCCN1c1cc(-c2ccnn2C)c2ccnc(-c3ccn[nH]3)c2n1 (stereo not given) + C=CC(=O)N1CCN(c2nc(=O)n(-c3c(C)ccnc3C(C)C)c3nc(-c4c(O)cccc4F)c(F)cc23)C(C)C1
inactive: viability, T/C [1] 97.3% | viability, T/C [2] 91% | viability, T/C [3] 76.7% | viability, T/C [4] 77.9% | viability, T/C [5] 73% | viability, T/C [6] 82.7% | viability, T/C [7] 95% | viability, T/C [8] 98.4% | viability, T/C [9] 87.8% | viability, T/C [10] 95.1% | viability, T/C [11] 88% | viability, T/C [12] 91.9% | viability, T/C [13] 91.7% | viability, T/C [14] 111% | viability, T/C [15] 96% | viability, T/C [16] 84.5% | viability, T/C [17] 79.6% | viability, T/C [18] 91.9% | viability, T/C [19] 88.4% | viability, T/C [20] 96.9% | viability, T/C [21] 88.4% | viability, T/C [22] 79.3% | viability, T/C [23] 69.4% | viability, T/C [24] 82.2% | viability, T/C [25] 77.6% | viability, T/C [26] 69.5% | viability, T/C [27] 71% | viability, T/C [28] 57.2% | viability, T/C [29] 67.2% | viability, T/C [30] 66.9%
< 5.50: pIC50 (second compound 0.1 µM) | pIC50 (second compound 0.316 µM) | pIC50 (second compound 1 µM) | pIC50 (second compound 3.16 µM) | pIC50 (second compound 10 µM)

CC1OCC2(CCN(c3cnc(Sc4ccnc(N)c4Cl)c(N)n3)CC2)C1N (stereo not given) + C=CC(=O)N1CCN(c2nc(=O)n(-c3c(C)ccnc3C(C)C)c3nc(-c4c(O)cccc4F)c(F)cc23)C(C)C1
< 5.00: pIC50 (second compound 0.1 µM) | pIC50 (second compound 0.316 µM) | pIC50 (second compound 1 µM) | pIC50 (second compound 3.16 µM) | pIC50 (second compound 10 µM)
inactive: viability, T/C [2] 99.6% | viability, T/C [3] 93.6% | viability, T/C [4] 99.6% | viability, T/C [5] 92% | viability, T/C [6] 106% | viability, T/C [31] 128% | viability, T/C [8] 97.3% | viability, T/C [9] 94.4% | viability, T/C [10] 91.9% | viability, T/C [11] 96% | viability, T/C [12] 113% | viability, T/C [32] 116% | viability, T/C [14] 98.7% | viability, T/C [15] 103% | viability, T/C [16] 102% | viability, T/C [17] 90.4% | viability, T/C [18] 124% | viability, T/C [33] 120% | viability, T/C [20] 97.7% | viability, T/C [21] 95.9% | viability, T/C [22] 91.8% | viability, T/C [23] 81.3% | viability, T/C [24] 106% | viability, T/C [34] 108% | viability, T/C [26] 75% | viability, T/C [27] 75% | viability, T/C [28] 62.5% | viability, T/C [29] 54.8% | viability, T/C [30] 70.4% | viability, T/C [35] 79%

CCN1CCN(Cc2ccc(Nc3ncc(F)c(-c4cc(F)c5nc(C)n(C(C)C)c5c4)n3)nc2)CC1 + C=CC(=O)N1CCN(c2nc(=O)n(-c3c(C)ccnc3C(C)C)c3nc(-c4c(O)cccc4F)c(F)cc23)C(C)C1
< 6.00: pIC50 (second compound 0.1 µM) | pIC50 (second compound 0.316 µM) | pIC50 (second compound 1 µM) | pIC50 (second compound 3.16 µM) | pIC50 (second compound 10 µM)
inactive: viability, T/C (second compound 0.1 µM, first compound 0.00316 µM) 102% | viability, T/C [1] 88.8% | viability, T/C [2] 86.1% | viability, T/C [3] 74.2% | viability, T/C [4] 83.6% | viability, T/C [5] 97.6% | viability, T/C (second compound 0.316 µM, first compound 0.00316 µM) 95.8% | viability, T/C [7] 90.6% | viability, T/C [8] 78.7% | viability, T/C [9] 86% | viability, T/C [10] 88.2% | viability, T/C [11] 88.5% | viability, T/C (second compound 1 µM, first compound 0.00316 µM) 111% | viability, T/C [13] 91.9% | viability, T/C [14] 111% | viability, T/C [15] 94.3% | viability, T/C [16] 85.6% | viability, T/C [17] 125% | viability, T/C (second compound 3.16 µM, first compound 0.00316 µM) 87.6% | viability, T/C [19] 89.4% | viability, T/C [20] 101% | viability, T/C [21] 90.3% | viability, T/C [22] 109% | viability, T/C [23] 114% | viability, T/C (second compound 10 µM, first compound 0.00316 µM) 63.2% | viability, T/C [25] 73.2% | viability, T/C [26] 75.3% | viability, T/C [27] 70.4% | viability, T/C [28] 85.5% | viability, T/C [29] 114%

CCNC(=O)CC1N=C(c2ccc(Cl)cc2)c2cc(OC)ccc2-n2c(C)nnc21 (stereo not given) + C=CC(=O)N1CCN(c2nc(=O)n(-c3c(C)ccnc3C(C)C)c3nc(-c4c(O)cccc4F)c(F)cc23)C(C)C1
6.03: pIC50 (second compound 3.16 µM)
inactive: viability, T/C [2] 88.2% | viability, T/C [3] 93.7% | viability, T/C [4] 79.9% | viability, T/C [5] 78.5% | viability, T/C [6] 81.6% | viability, T/C [31] 78.6% | viability, T/C [8] 103% | viability, T/C [9] 105% | viability, T/C [10] 79.3% | viability, T/C [11] 72.2% | viability, T/C [12] 83.3% | viability, T/C [32] 70.6% | viability, T/C [14] 112% | viability, T/C [15] 108% | viability, T/C [16] 83.2% | viability, T/C [17] 81.1% | viability, T/C [18] 66.5% | viability, T/C [33] 68.7% | viability, T/C [20] 89.3% | viability, T/C [21] 83% | viability, T/C [22] 65.6% | viability, T/C [23] 49.8% | viability, T/C [24] 40.7% | viability, T/C [34] 45.3% | viability, T/C [26] 72.1% | viability, T/C [27] 68.4% | viability, T/C [28] 46.2% | viability, T/C [29] 35.5% | viability, T/C [30] 33.7% | viability, T/C [35] 29.2%
< 5.00: pIC50 (second compound 0.1 µM) | pIC50 (second compound 0.316 µM) | pIC50 (second compound 1 µM)
6.58: pIC50 (second compound 10 µM)
